{"source": "paper PMC6879241", "about": "(Antimicrobial Agents and Chemotherapy, 2019)", "key": {"[1]": {"tested_on": "B. pseudomallei", "test": "microbe, parasite or virus in culture", "assay_type": "cell-based, Burkholderia pseudomallei", "conditions": "for MIC50 / MIC90: Burkholderia pseudomallei"}, "[2]": {"biological_target": "human Topo I (Homo sapiens, UniProt P11387)", "sequence (P11387 whole entry)": "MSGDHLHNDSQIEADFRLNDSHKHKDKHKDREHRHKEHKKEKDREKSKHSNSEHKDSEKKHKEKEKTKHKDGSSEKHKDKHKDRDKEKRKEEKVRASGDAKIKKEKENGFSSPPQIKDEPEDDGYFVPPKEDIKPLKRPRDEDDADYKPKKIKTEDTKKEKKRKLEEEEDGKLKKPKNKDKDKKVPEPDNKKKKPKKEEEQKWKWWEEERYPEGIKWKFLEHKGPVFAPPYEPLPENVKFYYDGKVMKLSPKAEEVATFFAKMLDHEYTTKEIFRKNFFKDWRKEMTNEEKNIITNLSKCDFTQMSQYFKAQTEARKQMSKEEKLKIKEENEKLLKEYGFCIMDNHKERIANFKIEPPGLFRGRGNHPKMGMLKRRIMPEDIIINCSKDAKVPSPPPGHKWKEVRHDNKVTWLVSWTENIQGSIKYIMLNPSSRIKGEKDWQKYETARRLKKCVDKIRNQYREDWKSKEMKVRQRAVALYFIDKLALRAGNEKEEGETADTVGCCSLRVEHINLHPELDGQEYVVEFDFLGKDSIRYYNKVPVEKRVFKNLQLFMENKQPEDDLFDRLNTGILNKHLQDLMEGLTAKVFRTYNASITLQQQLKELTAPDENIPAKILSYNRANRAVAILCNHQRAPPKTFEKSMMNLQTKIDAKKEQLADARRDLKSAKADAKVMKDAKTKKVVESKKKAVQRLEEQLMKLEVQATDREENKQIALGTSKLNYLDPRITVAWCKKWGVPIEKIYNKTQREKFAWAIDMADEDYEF", "test": "biochemical"}, "[3]": {"tested_on": "E. coli ATCC 25922", "test": "microbe, parasite or virus in culture", "assay_type": "cell-based", "conditions": "Escherichia coli, ATCC25922"}, "[4]": {"tested_on": "P. aeruginosa ATCC 27853", "test": "microbe, parasite or virus in culture", "assay_type": "cell-based", "conditions": "Pseudomonas aeruginosa, ATCC27853"}, "[5]": {"biological_target": "S. aureus DNA gyrase (Staphylococcus aureus, UniProt P0A0K8+P20831)", "test": "biochemical"}, "[6]": {"biological_target": "S. aureus Topo IV (Staphylococcus aureus, UniProt P0C1S7+P0C1U9)", "test": "biochemical"}, "[7]": {"biological_target": "E. coli DNA gyrase (Escherichia coli, UniProt P0AES4+P0AES6)", "test": "biochemical"}, "[8]": {"biological_target": "Quinolone-resistant E. coli gyrase (Escherichia coli, UniProt P0AES4+P0AES6)", "assay_type": "biochemical", "conditions": "read-out: IC50, E. coli quinolone-resistant gyrase"}, "[9]": {"biological_target": "E. coli Topo IV (Escherichia coli, UniProt P0AFI2+P20083)", "sequence (P0AFI2 whole entry)": "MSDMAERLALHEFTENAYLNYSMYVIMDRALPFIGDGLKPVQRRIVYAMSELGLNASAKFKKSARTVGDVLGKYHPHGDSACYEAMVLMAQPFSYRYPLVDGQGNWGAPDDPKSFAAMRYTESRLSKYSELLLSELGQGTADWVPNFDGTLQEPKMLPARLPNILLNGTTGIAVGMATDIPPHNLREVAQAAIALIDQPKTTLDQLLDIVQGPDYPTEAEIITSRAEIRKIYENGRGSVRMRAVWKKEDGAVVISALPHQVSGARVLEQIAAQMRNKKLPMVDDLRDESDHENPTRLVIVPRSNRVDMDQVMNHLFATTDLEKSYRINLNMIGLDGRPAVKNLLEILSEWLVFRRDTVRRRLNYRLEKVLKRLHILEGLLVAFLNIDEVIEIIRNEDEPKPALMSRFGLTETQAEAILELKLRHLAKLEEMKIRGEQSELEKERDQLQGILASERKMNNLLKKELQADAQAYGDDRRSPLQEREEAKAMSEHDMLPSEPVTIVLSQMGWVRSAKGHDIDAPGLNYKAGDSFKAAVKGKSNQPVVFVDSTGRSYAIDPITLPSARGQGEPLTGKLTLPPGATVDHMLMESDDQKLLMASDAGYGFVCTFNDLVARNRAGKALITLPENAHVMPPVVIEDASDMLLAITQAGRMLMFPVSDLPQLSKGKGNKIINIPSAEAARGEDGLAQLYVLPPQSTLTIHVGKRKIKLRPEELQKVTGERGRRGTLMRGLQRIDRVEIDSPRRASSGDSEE", "sequence (P20083 whole entry)": "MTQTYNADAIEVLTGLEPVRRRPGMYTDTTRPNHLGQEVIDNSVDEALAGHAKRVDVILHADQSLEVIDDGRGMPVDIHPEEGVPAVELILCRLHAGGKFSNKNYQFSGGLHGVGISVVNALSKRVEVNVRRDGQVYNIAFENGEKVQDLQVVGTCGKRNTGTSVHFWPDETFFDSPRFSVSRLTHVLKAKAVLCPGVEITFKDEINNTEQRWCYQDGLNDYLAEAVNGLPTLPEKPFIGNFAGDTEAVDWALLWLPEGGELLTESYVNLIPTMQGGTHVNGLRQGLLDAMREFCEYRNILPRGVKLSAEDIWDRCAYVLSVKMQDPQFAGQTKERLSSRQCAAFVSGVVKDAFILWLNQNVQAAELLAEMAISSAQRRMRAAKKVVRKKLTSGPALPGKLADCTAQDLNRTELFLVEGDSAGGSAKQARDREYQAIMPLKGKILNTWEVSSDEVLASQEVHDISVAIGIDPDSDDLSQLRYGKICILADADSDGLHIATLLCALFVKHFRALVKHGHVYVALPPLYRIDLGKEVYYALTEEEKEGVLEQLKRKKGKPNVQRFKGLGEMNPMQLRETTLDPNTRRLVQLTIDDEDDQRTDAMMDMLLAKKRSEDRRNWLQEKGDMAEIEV", "test": "biochemical"}, "[10]": {"tested_on": "B. anthracis", "test": "microbe, parasite or virus in culture", "assay_type": "cell-based, Bacillus anthracis"}, "[11]": {"tested_on": "F. tularensis", "test": "microbe, parasite or virus in culture", "assay_type": "cell-based, Francisella tularensis"}, "[12]": {"tested_on": "Y. pestis", "test": "microbe, parasite or virus in culture", "assay_type": "cell-based, Yersinia pestis"}, "[13]": {"tested_on": "B. mallei", "test": "microbe, parasite or virus in culture", "assay_type": "cell-based, Burkholderia mallei", "conditions": "for MIC50 / MIC90: Burkholderia mallei"}, "[14]": {"tested_on": "B. pseudomallei strain 1026b", "assay_type": "cell-based, Burkholderia pseudomallei"}, "[15]": {"tested_on": "B. pseudomallei 1026b-based efflux-proficient and -compromised strains", "test": "microbe, parasite or virus in culture", "assay_type": "cell-based", "conditions": "Burkholderia pseudomallei, read-out: MIC under efflux by BpeEF-OprC"}, "[16]": {"tested_on": "intracellular B. pseudomallei 1026b", "test": "microbe, parasite or virus in culture", "assay_type": "cell-based, Burkholderia pseudomallei"}, "[17]": {"tested_on": "B. pseudomallei strain 1026b", "set-up": "species or system BALB/c mice", "conditions": "mouse, in vivo"}, "[18]": {"conditions": "not told"}, "[19]": {"tested_on": "B. pseudomallei strain 1026b", "set-up": "species or system BALB/c mice", "conditions": "mouse, in vivo", "remark": "listed apart in the source"}, "[20]": {"tested_on": "intracellular B. pseudomallei 1026b", "conditions": "cited from earlier work"}}, "note": "Values joined by “and” are separate entries in the source; they are usually repeats but may differ in a detail not shown here. Equal entries are not always repeated. Where two headings read alike, the source gives them in different places."}
{"smiles": "C[C@@H](O)[C@H]1C(=O)N2C(C(=O)O)=C(S[C@@H]3CN[C@H](C(=O)N(C)C)C3)[C@H](C)[C@H]12", "note": "[Meropenem, meropenem]", "values": [{"measurement": "MIC range", "setting": "[1]", "value": "≤0.06 to 4", "unit": "µg/mL"}, {"measurement": "MIC50", "setting": "[1]", "value": 0.5, "unit": "µg/mL"}, {"measurement": "MIC90", "setting": "[1]", "value": 1, "unit": "µg/mL"}]}
{"smiles": "O=C(O)c1cn(C2CC2)c2cc(N3CCNCC3)c(F)cc2c1=O", "note": "[Ciprofloxacin, ciprofloxacin]", "values": [{"measurement": "IC50", "setting": "[2]", "value": "> 100", "unit": "µM"}, {"measurement": "MIC", "setting": "[3]", "value": "≤ 0.008", "unit": "µg/mL"}, {"measurement": "MIC", "setting": "[4]", "value": 0.25, "unit": "µg/mL"}]}
{"smiles": "Cc1c(-c2cc(F)c(N)cc2F)ccn2c(=O)c(C(=O)O)cc(C3CC3)c12", "note": "[GC-072]", "values": [{"measurement": "IC50", "setting": "[5]", "value": 2, "unit": "µM"}, {"measurement": "IC50", "setting": "[6]", "value": "4 to 30", "unit": "µM"}, {"measurement": "IC50", "setting": "[7]", "value": "0.18 to 1.5", "unit": "µM"}, {"measurement": "IC50", "setting": "[8]", "value": "1.3 to 1.5", "unit": "µM"}, {"measurement": "IC50", "setting": "[9]", "value": "4.22 to 8.45", "unit": "µM"}, {"measurement": "IC50", "setting": "[2]", "value": "> 100", "unit": "µM"}, {"measurement": "MIC range", "setting": "[1]", "value": "≤0.008 to 1", "unit": "µg/mL"}, {"measurement": "share of strains with MICs higher than 0.5 μg/ml", "setting": "[1]", "value": 7, "unit": "%"}, {"measurement": "MIC50", "setting": "[1]", "value": 0.12, "unit": "µg/mL"}, {"measurement": "MIC90", "setting": "[1]", "value": 0.25, "unit": "µg/mL"}, {"measurement": "MIC range", "setting": "[10]", "value": "≤0.0005 to 0.004", "unit": "µg/mL"}, {"measurement": "MIC50", "setting": "[10]; Bacillus anthracis", "value": 0.001, "unit": "µg/mL"}, {"measurement": "MIC90", "setting": "[10]; Bacillus anthracis", "value": 0.002, "unit": "µg/mL"}, {"measurement": "MIC range", "setting": "[11]", "value": "≤0.0005 to 0.015", "unit": "µg/mL"}, {"measurement": "MIC50", "setting": "[11]; Francisella tularensis", "value": "≤ 0.0005", "unit": "µg/mL"}, {"measurement": "MIC90", "setting": "[11]; Francisella tularensis", "value": "≤ 0.0005", "unit": "µg/mL"}, {"measurement": "MIC range", "setting": "[12]", "value": "0.002 to 0.03", "unit": "µg/mL"}, {"measurement": "MIC50", "setting": "[12]; Yersinia pestis", "value": 0.008, "unit": "µg/mL"}, {"measurement": "MIC90", "setting": "[12]; Yersinia pestis", "value": 0.015, "unit": "µg/mL"}, {"measurement": "MIC range", "setting": "[13]", "value": "≤0.004 to 0.5", "unit": "µg/mL"}, {"measurement": "MIC50", "setting": "[13]", "value": 0.015, "unit": "µg/mL"}, {"measurement": "MIC90", "setting": "[13]", "value": 0.12, "unit": "µg/mL"}, {"measurement": "MIC for B. pseudomallei 1026b (time-kill study)", "setting": "[14]", "value": 0.125, "unit": "µg/mL"}, {"measurement": "share of the full killing effect observed within 5 h", "setting": "[14]", "value": "more than 75%"}, {"measurement": "MIC", "setting": "[15]", "value": "0.5 to 1", "unit": "µg/mL"}, {"measurement": "MIC", "setting": "[3]", "value": "≤ 0.004", "unit": "µg/mL"}, {"measurement": "MIC", "setting": "[4]", "value": 1, "unit": "µg/mL"}, {"measurement": "viable intracellular bacteria 24 h after initiation of treatment", "setting": "[16]", "value": "no viable bacteria detectable"}, {"measurement": "MIC", "setting": "[16]; Burkholderia pseudomallei, read-out: MIC for B. pseudomallei strain 1026b measured for the intracellular experiment", "value": 0.25, "unit": "µg/mL"}, {"measurement": "animals that survived to the end of the experiment", "setting": "[17]", "value": "four"}, {"measurement": "median survival time", "setting": "[17]", "value": "4.5 days and 4.75 days and 5.63 days"}, {"measurement": "overall survival rate of the treated groups", "setting": "[17]", "value": 87, "unit": "%"}, {"measurement": "survival", "setting": "[17]", "value": "90% and 80%"}, {"measurement": "permeability", "setting": "[18]", "value": "good"}]}
{"smiles": "N#Cc1c(N2C[C@@H]3NCCO[C@H]3C2)c(F)cc2c(=O)c(C(=O)O)cn(C3CC3)c12", "note": "[Finafloxacin, finafloxacin, reference compound]", "values": [{"measurement": "MIC 50%", "setting": "[1]", "value": 4, "unit": "µg/mL"}, {"measurement": "MIC 90%", "setting": "[1]", "value": 8, "unit": "µg/mL"}, {"measurement": "MIC 50%", "setting": "[10]", "value": 0.06, "unit": "µg/mL"}, {"measurement": "MIC 90%", "setting": "[10]", "value": 0.12, "unit": "µg/mL"}, {"measurement": "MIC range", "setting": "[10]", "value": "0.03 to 0.12", "unit": "µg/mL"}, {"measurement": "MIC 50%", "setting": "[11]", "value": "≤0.004", "unit": "µg/mL"}, {"measurement": "MIC 90%", "setting": "[11]", "value": 0.008, "unit": "µg/mL"}, {"measurement": "MIC range", "setting": "[11]", "value": "≤0.004 to 0.12", "unit": "µg/mL"}, {"measurement": "MIC 50%", "setting": "[12]", "value": 0.06, "unit": "µg/mL"}, {"measurement": "MIC 90%", "setting": "[12]", "value": 0.12, "unit": "µg/mL"}, {"measurement": "MIC range", "setting": "[12]", "value": "0.015 to 0.25", "unit": "µg/mL"}, {"measurement": "MIC 50%", "setting": "[13]", "value": 0.25, "unit": "µg/mL"}, {"measurement": "MIC 90%", "setting": "[13]", "value": 2, "unit": "µg/mL"}, {"measurement": "MIC range", "setting": "[13]", "value": "0.015 to 2", "unit": "µg/mL"}]}
{"smiles": "CC[C@H]1OC(=O)[C@H](C)[C@@H](O[C@H]2C[C@@](C)(OC)[C@@H](O)[C@H](C)O2)[C@H](C)[C@@H](O[C@@H]2O[C@H](C)C[C@H](N(C)C)[C@H]2O)[C@](C)(O)C[C@@H](C)CN(C)[C@H](C)[C@@H](O)[C@]1(C)O", "note": "[Azithromycin]", "values": [{"measurement": "MIC range", "setting": "[13]", "value": "0.12 to 1", "unit": "µg/mL"}, {"measurement": "MIC50", "setting": "[13]", "value": 0.5, "unit": "µg/mL"}, {"measurement": "MIC90", "setting": "[13]", "value": 0.5, "unit": "µg/mL"}]}
{"smiles": "C[C@H]1c2cccc(O)c2C(=O)C2=C(O)[C@]3(O)C(=O)C(C(N)=O)=C(O)[C@@H](N(C)C)[C@@H]3[C@@H](O)[C@@H]21", "note": "[Doxycycline, doxycycline]", "values": [{"measurement": "MIC range", "setting": "[1]", "value": "≤0.06 to 32", "unit": "µg/mL"}, {"measurement": "MIC50", "setting": "[1]", "value": 0.5, "unit": "µg/mL"}, {"measurement": "MIC90", "setting": "[1]", "value": 4, "unit": "µg/mL"}, {"measurement": "MIC", "setting": "[3]", "value": 1, "unit": "µg/mL"}, {"measurement": "MIC", "setting": "[4]", "value": "> 16", "unit": "µg/mL"}]}
{"smiles": "CC(C)(O/N=C(\\C(=O)N[C@@H]1C(=O)N2C(C(=O)[O-])=C(C[n+]3ccccc3)CS[C@H]12)c1csc(N)n1)C(=O)O", "note": "[Ceftazidime, ceftazidime]", "values": [{"measurement": "MIC50", "setting": "[1]", "value": 1, "unit": "µg/mL"}, {"measurement": "MIC90", "setting": "[1]", "value": 64, "unit": "µg/mL"}, {"measurement": "MIC", "setting": "[3]", "value": 0.25, "unit": "µg/mL"}, {"measurement": "MIC", "setting": "[4]", "value": 4, "unit": "µg/mL"}, {"measurement": "survival", "setting": "[19]", "value": 100, "unit": "%"}, {"measurement": "effect on intracellular survival of B. pseudomallei in macrophages", "setting": "[20]", "value": "no effect"}]}
